The values that follow come from PubChem BioAssay (NCI).

Where “and” joins values, the source holds several entries; their conditions need not be identical. Equal values may be shown once.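 These data come from cells grown in 96-well plates and exposed to compound for 48 hours at five concentrations. Here, GI50 denotes the concentration required for 50% inhibition of growth. Definition used: TGI = concentration required for complete inhibition of growth.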

What all share (experiment): inhibition of tumour cell growth, NCI panel, 48 h
Test [1] concerns SW-620 colon.
Test [2] deals with HOP-18 NSCLC.
Test [3] has as its system XF 498 CNS.
For test [4], the system named is A549 NSCLC.
Test [5] concerns M19-MEL melanoma.
Test [6] concerns SNB-19 CNS.
In test [7] the test system is MOLT-4 leukemia.
The test system of test [8] is LXFL 529 NSCLC.
Test [9] deals with HS 578T breast.
Test [10] relates to PC-3 prostate.

Turning to `OCCCc1cnco1`, the TGI in test [1], in [2], in test [3], in [4], in [5] and in test [6] was greater than 100 µM in each case. The TGI in test [7] and in [8] was greater than 100 µM throughout.

On to `CC(C)(CN1CCCCC1)C(=O)CC(SCCN)c1ccc(Cl)cc1` (configuration not stated), for which the TGI came out at 3.94 µM in test [1]; 4.1 µM in test [3]; 10.2 µM in test [4]; 7.39 µM in [5]; 4.54 µM in [6]; 4.72 µM in [7]. Further, the TGI in [8] is 3.33 µM.

With `C#CCn1c(=O)c2cccnc2n(CC#C)c1=O`, the TGI in [1], in [2], in [3], in test [4], in [6] and in test [7] was greater than 100 µM in each case. Also, in [8], the TGI is greater than 100 µM.

Take `CCc1cccc(CC)c1NC(=O)CC1SC(N)=NC1=O` (configuration not stated): the TGI in test [1], in test [2], in [3], in [4], in [5] and in test [6] was greater than 100 µM in each case. The TGI in test [7] and in test [8] was greater than 100 µM throughout.

For `O=c1nc(N2CCCC2)nc(N2CCCC2)s1`, the TGI in test [1], in [2], in test [3], in [4], in [5] and in test [6] was greater than 100 µM each time. Moreover, the TGI in test [7] and in test [8] was greater than 100 µM in each case.

With `Cc1ccc(NC(=O)/C(=N\NC(N)=S)C(C#N)c2ccccc2C)cc1C` (configuration not stated), the TGI in test [1], in [2], in test [3], in test [4], in test [5] and in test [6] was greater than 100 µM throughout. Further, the TGI in test [7] and in [8] was greater than 100 µM in each case.

In the case of `C=C(COC(C)=O)CC(/C=C(\C)CC/C=C(\C)CO)OC(C)=O` (configuration not stated), the TGI in test [1], in [3], in [4], in test [5], in test [6] and in test [7] was greater than 100 µM in each case. In [8], this molecule had a TGI greater than 100 µM.

Consider `CCCCN(CCCC)CC(C(=O)Nc1ccc([N+](=O)[O-])cc1[N+](=O)[O-])/C(C)=N\NC(=O)C[N+](C)(C)C` (configuration not stated), for which the TGI in [2], in [3], in test [4], in test [5], in test [6] and in [7] was greater than 100 µM each time. The molecule further came in with a TGI in test [8] greater than 100 µM.

For `CC(=O)Oc1c(Br)ccc2cc(C(Br)Br)c(C(=O)c3ccccc3)nc12`, the TGI in [1] is 48.2 µM; in test [2] it was 31.2 µM; in test [3] it was 36.1 µM; in [4], 43.4 µM; in test [5] it was 44.1 µM; in [6], 39.1 µM. The TGI in test [7] came to 46.2 µM; in test [8], 52.3 µM.

For `CCOC(=O)/C(=C/c1ccccc1Br)P(=O)(OCC)OCC`, the TGI in [1] turned out to be 4.45 µM; in test [2], 10.7 µM; in [3], 3.56 µM; in [4], 10.7 µM; in test [5] it was 3.68 µM; in [6], 6.21 µM. In addition, the values for the TGI in test [7] and in [8] were 5.35 µM and 2.92 µM, respectively.

`O=C(O)c1ccc(C(=O)O)c(C(=O)O)c1.[NH-]C1CCCCC1[NH-].[Pt+2]`: the GI50 in [1] is 0.43 µM; in test [2] it was 11.8 µM; in [3] it was 1.8 µM; in [4], 1.87 µM; in [5] it was 1.41 µM; in test [9] it was 13.5 µM. In addition, the GI50 in test [6] is 11 µM; in [7] it was 0.5 µM and 4.84 µM; in test [8] it was 5.94 µM; in test [10], 4.94 µM. The TGI in test [1] came to 57.9 µM; in test [2], 84.6 µM; in test [3], 16.5 µM; in test [4], 39 µM; in [5] it was 46 µM; in [9], 84.5 µM. Also, the TGI in test [6] is greater than 93.8 µM; in test [7] it was 20 µM; in test [8], greater than 100 µM; in test [10], 59.5 µM.

With `CC(=O)OCC1OC([Se-])C(OC(C)=O)C(OC(C)=O)C1OC(C)=O.N#CCC[PH+](CCC#N)CCC#N.[Au+]` (configuration not stated), the GI50 in [1] was 4.75 µM; in test [2], 12.6 µM; in test [3], 8.09 µM; in test [4], 9.09 µM; in test [5], 3.11 µM; in test [6], 10.9 µM. In addition, the figures for the GI50 in [7] and in test [8] were 2.75 µM and 3.5 µM, respectively. For the same molecule, the TGI in test [1] is greater than 89 µM; in [2] it was 46.9 µM; in test [3] it was 34.6 µM; in [4], 42.4 µM; in test [5] it was greater than 27.9 µM; in test [6] it was greater than 77.9 µM. Further, the TGI came out at 14.1 µM in test [7] and 37.3 µM in test [8].

Consider `NC1=NC2=C(CCCC2)C(c2cccs2)S1` (configuration not stated), for which the TGI in test [1], in test [2], in [3], in [4], in test [5] and in test [6] was greater than 100 µM in each case. For the same molecule, the TGI in [7] and in test [8] was greater than 100 µM throughout.

On to `N#Cc1c(-c2ccccc2)cc(-c2cccs2)c(C#N)c1N`, for which the TGI in test [1] is greater than 100 µM; in [2], 0.0879 µM; in [3], greater than 100 µM; in test [4], greater than 100 µM; in test [6] it was greater than 100 µM; in test [7], greater than 100 µM. Also, the TGI in test [8] is greater than 100 µM.

As for `Cc1cc2c(cc1C)[n+](=O)c(C(=O)CC(=O)C(=O)Nc1ccccc1C(C)C)c(C)n2[O-]`, the TGI in test [1], in test [3], in test [4], in test [5], in test [6] and in test [7] was greater than 100 µM each time. The TGI in test [8] was greater than 100 µM.

As for `Fc1ccc(C2SCc3nc4ccccc4n32)cc1F` (configuration not stated), the TGI in test [1], in test [2], in test [3], in [4], in test [5] and in [6] was greater than 100 µM in each case. In addition, the values for the TGI in test [7] and in test [8] were 56 µM and greater than 100 µM, respectively.

As to `CC(=O)CC(=O)NC=O`, the TGI in test [1], in test [2], in test [3], in test [4], in test [5] and in test [6] was greater than 100 µM in each case. The TGI in test [7] and in [8] was greater than 100 µM in each case.

In the case of `C=C1c2[nH]c3ccccc3c2CC(C(=O)O)N1C(O)c1ccc(S(=O)(=O)O)cc1` (configuration not stated), the TGI in test [1], in test [3], in test [4], in [5], in test [6] and in test [7] was greater than 100 µM throughout. Besides, the TGI in test [8] is greater than 100 µM.

As to `O=C(N/C=C/C=C/Sc1ccccc1)OCc1ccccc1`, the TGI in test [1] was 32.8 µM; in test [2], 65 µM; in test [3], 43.9 µM; in [4], 59.8 µM; in test [5], 31.5 µM; in [6], greater than 100 µM. Moreover, the TGI was greater than 100 µM in test [7] and 32.5 µM in test [8].

Regarding `CC(=O)N(CCN1C(=O)c2ccccc2C1=O)CCN1C(=O)c2ccccc2C1=O`, the TGI in [1], in test [3], in [4], in test [5], in [6] and in [7] was greater than 100 µM each time. Moreover, the TGI in test [8] is greater than 100 µM.

In the case of `NC(CO)c1ccc(OCc2ccccc2)cc1` (configuration not stated), the TGI in test [1], in test [2], in test [3], in test [4], in [5] and in test [6] was greater than 100 µM in each case. The TGI in test [7] and in [8] was greater than 100 µM throughout.

Consider `CCOC(=O)Nc1ccc2c(c1)N(C(=O)CCN(CC)CC)c1ccccc1S2`, for which the GI50 in test [1] was 52.5 µM; in [3], 0.626 µM; in test [4] it was 58.3 µM; in test [5] it was 56.2 µM; in test [6], 13.5 µM; in [7], 13.7 µM. The TGI was 59.3 µM and 122 µM in [1]; 33.4 µM and 10 µM in [3]; 125 µM in [4]; > 71.1 µM and 124 µM in test [5]; 41.1 µM in test [6]; 71.1 µM and 44.3 µM in test [7]. In addition, the TGI in [8] was 42.5 µM.

Take `NC(=S)N/N=C(\CCC(=O)Nc1ccccc1[N+](=O)[O-])CC(=O)c1ccco1`: the TGI in test [1], in [2], in [3], in test [4], in test [5] and in [6] was greater than 100 µM in each case. Besides, the TGI in test [7] and in test [8] was greater than 100 µM in each case.

`Cn1c2cc([N+](=O)[O-])ccc2c(=O)c2c(O)cc3c(c21)C=CC(C)(C)O3`: the TGI in test [1] is greater than 100 µM; in test [3] it was 47.7 µM; in test [4] it was greater than 100 µM; in [6], 73 µM; in [7] it was greater than 100 µM; in test [8] it was greater than 100 µM.
